Assay results published in publication PMC9814205, “Targeting undruggable carbohydrate recognition sites through focused fragment library design” (Communications Chemistry, 2022).
Where “and” joins values, the source holds several entries; their conditions need not be identical. Equal values may be shown once. Entries after “also recorded” stand apart in the source; their conditions may differ.

What was measured:
Format in all cases: binding
[1] = target: T1, LecA (Pseudomonas aeruginosa, UniProt Q05097); assay: Competitive fluorescence polarization (FP) assay; details: for inhibition at 10000 µM: read-out: Inhibition in FP, compared to MeGal at 10 mM (16 h); for Inhibition in FP: compared to MeGal at 10 mM (16 h)
T1 construct: made in house
T1 sequence (Q05097 whole entry): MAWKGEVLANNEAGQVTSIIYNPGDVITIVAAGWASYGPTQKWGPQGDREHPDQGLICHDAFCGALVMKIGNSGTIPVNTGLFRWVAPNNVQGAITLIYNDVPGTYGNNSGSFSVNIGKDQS
Protocol: The FP assay was performed in a black 384-well plate (Greiner Bio-One, Germany, 781900) with the final volume of 20 µL as described previously. Briefly, 10 µL of a sample solution series (10–0.078 mM) in TBS buffer containing 10 mM Ca^2+ (TBS/Ca^2+-buffer) and 20% DMSO were added in technical triplicates to 10 µL LecA (40 µM) preincubated with a galactose-based Cy5 conjugate[68] (20 nM) in TBS/Ca^2+-buffer. […] The plate was sealed (EASYseal, Greiner Bio-One, 676,001), centrifuged (1 min, 1500 rpm, 25 °C) and incubated in a humidity chamber for 16 h. The fluorescence was measured with an excitation 590 nm and emission 675 nm filter[68] on a PheraStar FS plate reader (BMG Labtech GmbH, Germany). The blank signal of TBS/Ca^2+-buffer containing 10% DMSO was subtracted and the compounds were analyzed with the MARS Data Analysis Software (BMG Labtech GmbH Germany) using the four-parameter variable slope model. The top and bottom plateaus were defined according to the positive controls. The graphs were visualized using Graphpad Prism 5. The percentage (%) of inhibition was calculated at the highest concentration compared with 10 mM MeGal set to 100%.

[2] = target: T2, 5FW LecA (PA-IL) (Pseudomonas aeruginosa, UniProt Q05097); assay: PrOF NMR with 5-fluorotryptophan-labeled LecA; details: for LE: ligand efficiency calculated from Kd for LecA, 310 K
T2 construct: made in house
T2 sequence (Q05097 2-122): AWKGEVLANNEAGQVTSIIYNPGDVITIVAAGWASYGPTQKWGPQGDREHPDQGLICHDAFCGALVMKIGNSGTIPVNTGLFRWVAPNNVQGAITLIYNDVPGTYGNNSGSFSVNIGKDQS
Protocol: PrOF NMR was performed as reported previously. Briefly, 150 µM 5FW LecA was recorded alone and in the presence of DMSO or 2–4 mM compounds in TBS/Ca^2+ buffer. The difference in chemical shift perturbations of W42 in 5FW LecA free vs bound forms was followed to determine Kd values of compounds. The Kd values were calculated according to the one-site-binding model in Origin(Pro) 2020b (OriginLab Corp., USA) from two or three independent titrations. Ligand efficiency values were calculated according to Eq. (1) for a temperature of 310 K.

[3] = target: T3, 15N LecA (Pseudomonas aeruginosa, UniProt Q05097); assay: 1H-15N TROSY NMR with 15N LecA; details: 4 mM analogs of 1, 1 mM marketed hydroxamates
T3 construct: made in house
T3 sequence (Q05097 whole entry): as the sequence (Q05097 whole entry) above
Protocol: The ^1H-^15N TROSY pulse sequence trosyf3gpphsi19 with 128 increments and 32 scans per increment was applied for 0.15 mM ^15N LecA and 0.07 mM LecB in HBS/Ca^2+ buffer (20 mM HEPES pH 7.4, 150 mM NaCl, 10 mM CaCl2, 10% D2O and 100 µM sodium trimethylsilylpropanesulfonate (DSS) as internal reference) at 310 K. The ^1H-^15N HSQC pulse sequence hsqcf3gpph19 with 128 increments and 8 scans per increment was applied for 0.1 mM ^15N DC-SIGN and Langerin CRD in HBS/Ca^2+ buffer at 298 K. For screening of 650 non-fluorinated fragments of the general library against ^15N LecA, a mix of 10 compounds at 1 mM each was combined with 0.15 mM ^15N LecA in HBS/Ca^2+ buffer (20 mM HEPES pH 7.4, 150 mM NaCl, 10 mM CaCl2, 10% D2O and 100 µM sodium trimethylsilylpropanesulfonate (DSS) as internal reference, whereas the fragments with the MBP scaffolds were validated separately at 1 mM. Similarly, 9 nonfluorinated fragments from the MBP library were screened against ^15N-labeled DC-SIGN, LecA and LecB. To validate the fragment binding to proteins, we recorded ^1H-^15N HSQC and TROSY NMR of proteins in the presence of DMSO as negative control and 2 mM fragments in HBS/Ca^2+ buffer. Natural ligands were used as positive controls at 1 mM MeGal, MeFuc and 30 mM D-mannose to LecA/LecB and DC-SIGN CRD/Langerin CRD, respectively. Titration experiments with ^15N-labeled DC-SIGN CRD or LecB were recorded in HBS/Ca^2+ buffer with 30 mM CaCl2 and 0.25 to 4–8 mM malonic acid derivatives. The Kd values were calculated according to the one-site-binding model in Origin(Pro) 2020b (OriginLab Corp., USA). Ligand efficiency calculations were done according to Eq. (1) for a temperature of 298 K and 310 K for DC-SIGN CRD and LecB, respectively.1 LE=RTlnKd/HA, with the temperature T [K], the gas constant R [kcal mol^−1 K^−1], and the number of non-hydrogen atoms HA[56].
All data were processed with NMRpipe[65] and analyzed with CcpNmr analysis. For data analysis, the protein fingerprint of ^15N DC-SIGN (Table S7) or Langerin CRD was assigned as reported previously. The ^1H-^15N TROSY resonances of ^15N LecA and ^15N LecB were indexed with IDs due to a lack of protein backbone resonance assignment (Tables S8-S9). Next, resonance IDs from protein spectra were transferred to the spectra obtained in the presence of compounds in order to compare the changes in chemical shift perturbations for the fast exchange peaks. The changes in chemical shift perturbations (CSPs) were calculated according to Eq. (2):2 △δ=1/2△δH2+α△δN^2 in which δ is the difference in chemical shift (in ppm) and α is an empirical weighting factor of 0.14 for all amino acid backbone resonances. The threshold value was set based on three independent measurements of reference spectra to 0.01 ppm for LecA, LecB, DC-SIGN CRD and Langerin CRD.

[4] = target: T1, LecA; assay: Competitive 19F T2-filtered NMR with reporter 5; details: 0.1 mM 5, 10 mM CaCl2, 3 mM competitor
Protocol: The analogs of 1 (5) and 58 (61) were used as fluorinated spy molecules in ^19F T2-filtered NMR experiments. Two samples containing 0.1 mM 5 or 61 alone or a 10 µM protein in TBS/EDTA buffer followed by addition of 10 mM CaCl2 and the carbohydrates: 1 mM MeGal (LecA), 1 mM MeFuc (LecB/BambL) and 30 mM D-mannose (DC-SIGN/Langerin). Similarly, 0.1 mM 5 was used to prioritize hydroxamate derivatives, where 3 mM analogs of 1 were added to the samples instead of the carbohydrates. The ^19F and ^19F T2-filtered spectra were recorded with 64 scans, a spectral width of 5 ppm, a transmitter offset at −155.5 ppm (5) and −155.5 ppm (61), the acquisition time of 0.8 s, 2 s relaxation time applying a T2-filter of 384 ms. All spectra were analyzed as described above.

| SMILES | inhibition at 10000 µM [1] [%] | Kd [2] [mM] | LE [2] [kcal mol^−1 HA^−1] | Inhibition in FP [1] | binding to 15N LecA in TROSY NMR [3] | competition of reporter 5 from LecA (recovery of 19F peak) [4] |
| --- | --- | --- | --- | --- | --- | --- |
| COc1cccc(C(O)=CC(=O)NO)c1 [compound 31] | 9 ± 2 | – | – | – | – | – |
| Cc1ccc(CCCC(=O)NO)cc1 [compound 36] | 27 to 39 | 3.6 ± 2.2 | 0.25 | 35 ± 3% | slightly improved binding | – |
| O=C(CCCc1ccc(Br)cc1)NO [compound 38] | 25 ± 1 | – | – | – | – | – |
| O=C(CC1CCCCC1)NO [compound 6] | 21 ± 1 | 4.4 ± 0.6 | 0.30 | – | preserved its binding | – |
| COc1ccc(CCCC(=O)NO)cc1 [compound 40] | 27 to 39 | – | – | 27 ± 1% | – | – |
| COc1ccc(CC(=O)NO)cc1 [compound 15] | – | – | – | 14–16% and 16 ± 4% | – | – |
| O=C(Cc1ccccc1)NO [compound 2, N-hydroxy-2-phenylacetamide] | 18.3 ± 1 | 6.1 ± 0.9 | – | 18 ± 1% | preserved the binding | recovered |
| CONC(=O)Cc1ccccc1 [compound 7] | – | – | – | lost their binding and inhibitory effect; also recorded: No inhibiton | not tolerated | – |
| O=C(CC=Cc1ccccc1)NO [compound 42] | 13 ± 3 | – | – | – | not tolerated | – |
| O=C(COCCCc1ccccc1)NO [compound 44] | 17 ± 2 | – | – | – | – | – |
| O=C(Cc1ccc(Br)cc1)NO [compound 11] | – | – | – | 14–16% and 14 ± 1% | – | – |
